Legend:
[1] = Single dose study in healthy postmenopausal women (safety, plasma bilirubin); type: in vivo
Method: Single center, randomized, placebo-controlled, double-blind and parallel group study. For the 30 mg group only, a one sequence cross-over design was applied to estimate the relative bioavailability of a liquid versus a solid formulation.
In this study the AKR1C3 inhibitor was administered as a single oral dose. Eight volunteers per treatment group were included. Two volunteers per treatment group were allocated to placebo in a randomized, double-blind fashion in order to assess non-drug related factors in the safety evaluation. To ensure that 8 subjects were treated, during the pre-dose phase at least 1 backup subject had to undergo all necessary measurements to compensate for the risk that a person had to be excluded immediately before dosing due to safety concerns.
Forty-six (46, 76.7%) out of 60 treated subjects were treated with the AKR1C3 inhibitor (6 subjects per group at dose levels 1 mg, 3 mg, 10 mg, 30 mg, 120 mg, 240 mg; 5 subjects per group at 60 mg and 90 mg) and 14 subjects (23.3%) received placebo (2 subjects each in the 1 mg, 3 mg, 30 mg, 60 mg, 120 mg and 240 mg groups, and 1 subject each in the 10 mg and 90 mg groups). All 60 treated subjects (100%) completed the study and were included in the statistical analyses of safety (SAF: N=60). One out of 60 treated subjects was not valid for the analysis of pharmacodynamics due to vomiting before two times tmax (PDS: N=59). This same subject was also excluded from the PK analysis of the 46 verum-treated subjects, and all 14 placebo-treated subjects were not valid for the analysis of PK (PKS: N=45).
Bilirubin was measured employing a standard laboratory kit.

[2] = Multiple dose study Part B in healthy premenopausal tubal-ligated women, 28 days (safety, plasma bilirubin); type: in vivo; conditions: for Plasma bilirubin concentrations above the upper limit of normal (subjects): tablets
Method: (§1) Plasma bilirubin levels were assessed prior to dosing and 1, 2, 6 and 14 days after drug administration. […] 30 mg (once daily), 90 mg (once daily) or 60 mg (twice daily) per 70 kg body weight for women of the AKR1C3 inhibitor over 14 days. Plasma bilirubin levels were assessed prior to dosing and 1, 2, 6, 10, 13, 15, 19 days after drug administration and at final examination. […] Plasma bilirubin levels were assessed prior to dosing and on cycle days 8, 12, 15, 22, 29, 33 after start of drug administration and at the follow up examinations.
(§2) The study was performed as an ascending dose study after multiple oral doses of the AKR1C3 inhibitor or placebo in 27 healthy postmenopausal (PM) women, aged 45 to 68 years (Part A) and 18 healthy tubal-ligated (TL) women, aged 18 to 48 (Part B).
The study consists of two parts: Part A was performed in healthy postmenopausal women (randomized within each dose level and placebo-controlled), Part B in healthy premenopausal women with tubal-ligation (open label; intraindividual comparison to pre-treatment cycle) with 28 days treatment (i.e. approx. one menstrual cycle). The safety of 30 mg once daily, 90 mg once daily, 60 mg twice/day of the AKR1C3 inhibitor given over 14 days was assessed in postmenopausal women prior to exposing premenopausal women to the corresponding doses of 60 mg once daily, 60 mg twice/day over 28 days. • Part A and Part B were further divided into different periods: • Part A: screening, pre-dose, treatment period 1 with single dose administration, treatment period 2 with multiple dose administration on 14 consecutive days and follow-up. […] Three increasing dosages of the AKR1C3 inhibitor were tested: 30 mg once daily, 90 mg once daily and 60 mg twice daily. In addition, a lower dose 3 mg once daily was evaluated. Nine volunteers per dose level were included into the study; thereof, n = 7 women were randomly assigned to treatment with the respective dose and n = 2 to placebo treatment. The study drug was administered in a double-blind manner within one dose level, i.e. all volunteers of that dose level received the same number of tablets identical in appearance. • Part B: screening, pre-dose (pre-treatment cycle), treatment period with multiple dose administration on 28 consecutive days and follow-up.

[3] = Embryonic (embryo-fetal) development study in rats; type: in vivo; conditions: for NOAEL: female, rat, in vivo, po, pregnant rats, oral gavage once daily, Day 6 to Day 17 of gestation
Method: The NOAEL for developmental toxicity in rats is consequently the mid dose of 17 mg/kg.
The control received the vehicle in the same manner. All F0-females were sacrificed on Day 21 of gestation and the following parameters were recorded after removal and examination of the ovaries and the uteri: Number of corpora lutea, number and state of implantation sites (i.e, live foetus, early and late interauterine deaths, dead fetuses). […] Dead fetuses were classified as those which appeared to have died shortly before necropsy. Live foetuses were euthanised by a subcutaneous injection of sodium pentobarbitone. Individual foetal and placental weights were recorded and foetuses were examined for external abnormalities and sexed by external observation. Afterwards, approximately one half of the foetuses in each litter were examined for visceral abnormalities by microdissection. They were then eviscerated and the carcasses processed and Alizarin Red S stained for skeletal examination. The remaining foetuses were fixed in Bouin's fluid and examined for visceral abnormalities by the Wilson sectioning method. Foetal abnormalities were classified as malformations (rare and/or potentially lethal defects) and variations (commonly occurring non-lethal abnormalities).

[4] = Embryonic (embryo-fetal) development study in rabbits; type: in vivo; conditions: for NOAEL: female, po, pregnant rabbits, oral gavage once daily, Day 6 to Day 19 of gestation
Method: However, the incidence of some foetal structural variations (= mild foetal structural abnormalities) was increased at the mid dose of 20 mg/kg and higher. […] Table 2: Preclinical safety margins
The control received the vehicle in the same manner. All F0-females were sacrificed on Day 29 of gestation and the following parameters were recorded after removal and examination of the ovaries and the uteri: Number of corpora lutea, number and state of implantation sites (i.e, live foetus, early and late interauterine deaths, dead fetuses). […] Dead fetuses were classified as those which appeared to have died shortly before necropsy. Live foetuses were euthanised by an intraperitoneal injection of sodium pentobarbitone. Individual foetal and placental weights were recorded and foetuses were examined for external abnormalities and sexed by external observation. All fetuses in each litter were examined for visceral abnormalities by microdissection, eviscerated and the carcasses processed and Alizarin Red S stained for skeletal examination. The intact heads of approximately one half of the fetuses in each litter were removed after the fetuses were killed and were processed in Bouin's fluid. The heads were then examined by the Wilson sectioning method. Foetal abnormalities were classified as malformations (rare and/or potentially lethal defects) and variations (commonly occurring non-lethal abnormalities). […] These variations were related to sternebra. […] This finding was not present in the background data. […] Thus, in summary, the NOAEL for maternal toxicity is considered to be 70 mg/kg. The NOAEL for developmental toxicity is regarded as 5 mg/kg due to the occurrence of foetal findings classified as variations at the dose of 20 mg/kg and higher.

[5] = cited from earlier work
AKR1C3 = molecular target: T1, AKR1C3 (Homo sapiens, UniProt P42330); conditions: as disclosed in WO 2013045407; cited from earlier work
T1 sequence (P42330 1-323): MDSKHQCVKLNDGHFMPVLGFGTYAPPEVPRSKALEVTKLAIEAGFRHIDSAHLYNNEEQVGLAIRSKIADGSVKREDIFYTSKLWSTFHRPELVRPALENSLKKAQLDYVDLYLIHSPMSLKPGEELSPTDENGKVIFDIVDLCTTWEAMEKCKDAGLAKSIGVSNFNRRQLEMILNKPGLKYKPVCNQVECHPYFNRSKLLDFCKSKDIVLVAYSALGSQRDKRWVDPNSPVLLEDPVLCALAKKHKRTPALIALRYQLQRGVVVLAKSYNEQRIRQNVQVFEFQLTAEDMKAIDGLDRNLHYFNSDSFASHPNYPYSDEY

[6] = Multiple dose study Part A in healthy postmenopausal women, 14 days (safety, plasma bilirubin); conditions: for Plasma bilirubin concentrations above the upper limit of normal (subjects): tablets
Method: as §1, §2
The study consists of two parts: Part A was performed in healthy postmenopausal women (randomized within each dose level and placebo-controlled), Part B in healthy premenopausal women with tubal-ligation (open label; intraindividual comparison to pre-treatment cycle) with 28 days treatment (i.e. approx. one menstrual cycle). The safety of 30 mg once daily, 90 mg once daily, 60 mg twice/day of the AKR1C3 inhibitor given over 14 days was assessed in postmenopausal women prior to exposing premenopausal women to the corresponding doses of 60 mg once daily, 60 mg twice/day over 28 days. • Part A and Part B were further divided into different periods: • Part A: screening, pre-dose, treatment period 1 with single dose administration, treatment period 2 with multiple dose administration on 14 consecutive days and follow-up. A wash-out period between treatment period 1 (administration day) and treatment period 2 (first administration) of at least 14 days and not more than 28 days was necessary. Women received the study medication in a fasted state in period 1 (single dose) as well as on day 14 of period 2 (multiple dose). On day 1 of period 2 the study medication was given after breakfast to evaluate the food effect. Three increasing dosages of the AKR1C3 inhibitor were tested: 30 mg once daily, 90 mg once daily and 60 mg twice daily. In addition, a lower dose 3 mg once daily was evaluated. Nine volunteers per dose level were included into the study; thereof, n = 7 women were randomly assigned to treatment with the respective dose and n = 2 to placebo treatment. The study drug was administered in a double-blind manner within one dose level, i.e. all volunteers of that dose level received the same number of tablets identical in appearance. • Part B: screening, pre-dose (pre-treatment cycle), treatment period with multiple dose administration on 28 consecutive days and follow-up. In the pre-dose period, hormonal changes during a menstrual cycle including evidence of ovulation were evaluated. Study drug administration started on day 4 of the menstrual bleeding after end of the pre-treatment cycle, the study drug was then be taken on 28 consecutive days, independent of further menstrual bleedings. The pre-treatment cycle can be separated by up to 2 menstrual cycles from the treatment period.
Total bilirubin concentrations were monitored throughout this study.Bilirubin was measured employing a standard laboratory kit. The tests were performed according to the instructions as provided by the manufacturer (Beckman coulter kit AU680).

[7] = Risk assessment on reproductive and developmental toxicities (exposure ratios animal:human) combined with clinical studies
Source text: According to that regulatory guidance, there is increased concern for reproductive or developmental toxicity in humans for relative exposure ratios (animal: human) that are <10 and decreased concern for exposure ratios >25.

SMILES: CN(CCC(=O)O)C(=O)c1ccc2c(c1)CC[C@@H]1[C@@H]2CC[C@]2(C)C(c3cncc(F)c3)=CC[C@@H]12 [AKR1C3 inhibitor, N-{[17-(5-Fluoropyridin-3-yl)estra-1,3,5(10),16-tetraen-3-yl]carbonyl}-N-methyl-β-alanine]
- drug-related TEAE headache ([1]; female, human, in vivo): 21.7%
- drug-related TEAE nausea ([1]; female, human, in vivo): 15.2%
- drug-related TEAE vomiting ([1]; female, human, in vivo): 13.0%
- Serious treatment-emergent adverse events (TEAEs) ([1]; in vivo): not reported
- indication for hemolysis ([1]; in vivo): no indication for hemolysis
- signs of drug-induced liver injury (DILI) ([1]; in vivo): no signs of drug-induced liver injury (DILI) have been detected
- maximum tolerated dose ([1]; single dose): 120 mg
- well tolerated up to a single dose ([1]; single oral dose): ≤ 120 mg
- Plasma bilirubin concentrations above the upper limit of normal (subjects) ([2]; 60 mg once daily over 28 days): 1 of 9
- changes in plasma bilirubin ([2]; 60 mg once daily, premenopausal women, 4 weeks of treatment): increases in plasma bilirubin were observed in a small fraction of subjects
- Plasma bilirubin concentrations above the upper limit of normal (subjects) ([2]; 60 mg twice daily over 28 days): 2 of 9
- changes in plasma bilirubin ([2]; 60 mg twice daily, 28 days): increase in plasma bilirubin was observed in a significant fraction of subjects
- incidence of fetal visceral and skeletal variations ([3]; 60 mg/kg, compared to the concurrent or historical control): higher incidence
- NOAEL ([3]; doses 0, 5, 17, 60 mg/kg, read-out: NOAEL for dev. toxicity): 17 mg/kg
- NOAEL ([3]; read-out: NOAEL for maternal toxicity): 60 mg/kg
- incidence of malformations ([3]; high dose 60 mg/kg, from eight dams, out of a total of 198 foetuses (control 1 foetus out of 211)): 12 foetuses
- higher systemic exposure (AUCunbound) at NOAEL than expected clinical exposure ([3]; rats at 17 mg/kg vs once daily 3 mg/day in humans): ~122 fold
- higher systemic exposure (AUCunbound) at NOAEL than expected clinical exposure ([3]; rats at 17 mg/kg vs once daily 30 mg/day in humans): ~15 fold
- higher systemic exposure (AUCunbound) at NOAEL than expected clinical exposure ([3]; rats at 17 mg/kg vs twice daily 60 mg/day in humans): approximately 2 fold
- NOAEL ([4]; rabbit, in vivo, doses 0, 5, 20, 70 mg/kg, read-out: NOAEL for dev. toxicity): 5 mg/kg
- NOAEL ([4]; rabbit, in vivo, read-out: NOAEL for maternal toxicity): 70 mg/kg
- occurrence of sternebra with increased ossification ([4]; rabbit, in vivo, 5 mg/kg): very low incidence
- incidence of some foetal structural variations ([4]; rabbit, in vivo, 20 mg/kg): increased
- incidence of a discoloured thymus in fetuses ([4]; rabbit, in vivo, 70 mg/kg): slightly higher incidence
- higher systemic exposure (AUCunbound) at NOAEL than expected clinical exposure ([4]; rabbits at 5 mg/kg vs once daily 3 mg/day in humans): ~17 fold
- higher systemic exposure (AUCunbound) at NOAEL than expected clinical exposure ([4]; rabbits at 5 mg/kg vs twice daily 60 mg/day in humans): approximately 0.3 fold
- lesion load ([5]; 0.2 mg/kg and 0.8 mg/kg, given daily, compared to the vehicle group): reduction in lesion load
- lesions on the bladder and on/in the uterus ([5]; 30 mg/kg daily, compared with the vehicle group (WO 2013045407)): hardly any lesions could be found
- AKR1C3 inhibition (AKR1C3): potent
- Plasma bilirubin concentrations above the upper limit of normal (subjects) ([6]; 60 mg twice daily over 14 days): 5 of 7
- changes in plasma bilirubin ([6]; 60 mg twice daily, 14 days): increase in plasma bilirubin was observed in a significant fraction of subjects
- Plasma bilirubin concentrations above the upper limit of normal (subjects) ([6]; 90 mg once daily over 14 days): 1 of 7
- changes in plasma bilirubin ([6]; 90 mg once daily, postmenopausal women, 2 weeks of treatment): increases in plasma bilirubin were observed in a small fraction of subjects
- well tolerated up to a dose ([6]; multiple dosing, women): ≤ 60 mg twice daily
- changes in plasma bilirubin ([6]; up to 30 mg once daily / 70 kg body weight, single and repeat dosing up to 14 days): no changes in plasma bilirubin were observed
- dose of decreased concern for reproductive or developmental toxicity in humans [7]: ≤ 3 mg daily dose
- dose of increased concern for reproductive or developmental toxicity in humans [7]: > 15 mg daily dose

From EP3269373A1, “LOW-DOSED ORAL DOSAGE FORM OF AN AKR1C3 INHIBITOR FOR TREATMENT OF DISEASES” (Bayer Pharma Aktiengesellschaft, priority 2016, dated 2018)
